Measurements taken from patent publication US20020137929A1, “1 - (3-heterocyclylphenyl) isothiourea, -isourea, -guanidine and -amidine herbicidal agents” (Intellectual Property Department, BASF Aktiengesellschaft, priority 1998, published 2002).

Legend:
ZEAMX (Corn, Field) = experiment: Preemergence herbicidal evaluation; format: in vivo, Zea mays; details: rate 0.2500 kg/ha; rated 4-5 weeks after treatment
In short: (§1)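 Sown cups got a single aqueous acetone spray of test compound (roughly 0.0156–0.500 kg/ha) before seedlings emerged. Evaluation, 4–5 weeks on, used a 0–9 visual scale covering plant stand, vigor, size, malformation, chlorosis and general appearance compared with controls.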

ORYSAT (Rice, Tebonnet) [1] = experiment: Preemergence herbicidal evaluation; format: in vivo, Oryza sativa, (L.) Tebonnet; details: rate 0.2500 kg/ha; rated 4-5 weeks after treatment
In short: as §1

CASOB (Sicklepod) = experiment: Postemergence herbicidal evaluation; format: in vivo, Cassia obtusifolia; details: postemergence
In short: (§2)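 Two-week seedlings sprayed postemergence at 40 psi; formulation: 1:1 acetone/water, 0.5% TWEEN 20; application ≈0.0156–0.500 kg/ha. Greenhouse grow-out, then 0–9 visual scoring at 4–5 weeks.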

CYPIR (Rice Flatsedge) = experiment: Preemergence weed control under flooded paddy conditions; format: in vivo, Cyperus iria; details: rated 3-4 weeks after treatment
In short: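 Visual injury scored 0-9 against control three to four weeks post-treatment, greenhouse-grown. Application: acetone/water (50/50) solutions dosed directly into flood water (1.5-3 cm over silt loam, planted top 0.5 cm), roughly 0.0313 to 0.500 kg/ha active ingredient.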

[2] = test system: GLXMAW (Soybean, Williams); experiment: Preemergence herbicidal evaluation; format: in vivo, Glycine max, (L.) Merr. cv Williams; details: rate 0.2500 kg/ha; rated 4-5 weeks after treatment
In short: as §1

MOOVA (Monochoria) = experiment: Preemergence weed control under flooded paddy conditions; format: in vivo, Monochoria vaginalis; details: rated 3-4 weeks after treatment
In short: (§3)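 Herbicidal effect is scored visually on a 0-9 scale against an untreated control, three to four weeks after compounds are pipetted into the flood water (1.5 to 3 cm deep) over seeds planted in silt loam at 0.5 cm depth. Rates: about 0.0313 to 0.500 kg/ha.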

[3] = test system: SAGPY (Arrowhead (Pygmaea)); experiment: as above; format: in vivo, Sagittaria pygmaea; details: rated 3-4 weeks after treatment
In short: as §3

CYPSE (Flatsedge) = experiment: Postemergence weed control under flooded paddy conditions; format: in vivo, Cyperus serotinus; details: postemergence weeds, 3-4 weeks after treatment
In short: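 Flood-water application, about 0.0313–0.500 kg/ha a.i. in aqueous/acetone 50/50 v/v; water depth 1.5–3 cm throughout. Weeds 3–5 cm, rice 1.5–2.5 leaf. Greenhouse; 0–9 visual rating vs control at 3–4 wk.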

SETVI (Foxtail, Green) = experiment: Preemergence herbicidal evaluation; format: in vivo, Setaria viridis; details: rate 0.2500 kg/ha; rated 4-5 weeks after treatment
In short: as §1

[4] = test system: CHEAL (Lambsquarters, Common); experiment: Postemergence herbicidal evaluation; format: in vivo, Chenopodium album; details: postemergence
In short: as §2

ECHCG (Barnyardgrass) = experiment: Postemergence herbicidal evaluation; format: in vivo, Echinochloa crus-galli; details: postemergence
In short: as §2

GALAP (Galium) = experiment: Preemergence herbicidal evaluation; format: in vivo, Galium aparine; details: rate 0.2500 kg/ha; rated 4-5 weeks after treatment
In short: as §1

ORYSAT (Rice, Tebonnet) [5] = experiment: Postemergence herbicidal evaluation; format: in vivo, Oryza sativa, (L.) Tebonnet; details: postemergence
In short: as §2

[6] = test system: TRZAWR (Wheat, Winter, cv Riband); experiment: Preemergence herbicidal evaluation; format: in vivo, Triticum aestivum; details: rate 0.2500 kg/ha; rated 4-5 weeks after treatment
In short: as §1

CCOC(=O)CN1C(=O)C(=Cc2ccc(F)cc2)SC1=Nc1cc(-n2c(=O)cc(C(F)(F)F)n(C)c2=O)c(F)cc1Cl [Compound 21, Ethyl 2-{{2-chloro-5-[3,6-dihydro-3-methyl-2,6-dioxo-4-(trifluoromethyl)-1(2H)-pyrimidinyl]-4-fluorophenyl}imino}-5-(p-fluorobenzylidene)-4-oxo-3-thiazolidineacetate]
ZEAMX preemergence herbicidal rating (ZEAMX (Corn, Field)): 0.0
ORYSAT preemergence herbicidal rating (ORYSAT (Rice, Tebonnet) [1]): 0.0
CASOB herbicidal rating (CASOB (Sicklepod); rate 0.0158 kg/ha): 0.0
CASOB herbicidal rating (CASOB (Sicklepod); rate 0.0315 kg/ha): 0.0
CASOB herbicidal rating (CASOB (Sicklepod); rate 0.0630 kg/ha): 0.0
Herbicidal rating CYPIR (CYPIR (Rice Flatsedge); 0.1160 kg/ha): 0.0
Herbicidal rating CYPIR (CYPIR (Rice Flatsedge); 0.2310 kg/ha): 0.0
Herbicidal rating CYPIR (CYPIR (Rice Flatsedge); 0.4630 kg/ha): 0.0
GLXMAW preemergence herbicidal rating [2]: 0.0
Herbicidal rating MOOVA (MOOVA (Monochoria); 0.1160 kg/ha): 0.0
Herbicidal rating MOOVA (MOOVA (Monochoria); 0.2310 kg/ha): 0.0
Herbicidal rating MOOVA (MOOVA (Monochoria); 0.4630 kg/ha): 0.0
Herbicidal rating SAGPY ([3]; 0.1160 kg/ha): 0.0
Herbicidal rating SAGPY ([3]; 0.2310 kg/ha): 0.0
Herbicidal rating SAGPY ([3]; 0.4630 kg/ha): 0.0
Herbicidal rating CYPSE (CYPSE (Flatsedge); rate 0.1160 kg/ha): 0.0
Herbicidal rating CYPSE (CYPSE (Flatsedge); rate 0.2310 kg/ha): 0.0
Herbicidal rating CYPSE (CYPSE (Flatsedge); rate 0.4630 kg/ha): 0.0
SETVI preemergence herbicidal rating (SETVI (Foxtail, Green)): 0.0
CHEAL herbicidal rating ([4]; rate 0.0158 kg/ha): 2.0
CHEAL herbicidal rating ([4]; rate 0.0315 kg/ha): 5.0
CHEAL herbicidal rating ([4]; rate 0.0630 kg/ha): 7.0
ECHCG herbicidal rating (ECHCG (Barnyardgrass); rate 0.0158 kg/ha): 1.0
ECHCG herbicidal rating (ECHCG (Barnyardgrass); rate 0.0315 kg/ha): 2.0
ECHCG herbicidal rating (ECHCG (Barnyardgrass); rate 0.0630 kg/ha): 2.0
GALAP preemergence herbicidal rating (GALAP (Galium)): 0.0
ORYSAT herbicidal rating (ORYSAT (Rice, Tebonnet) [5]; rate 0.0158 kg/ha): 2.0
ORYSAT herbicidal rating (ORYSAT (Rice, Tebonnet) [5]; rate 0.0315 kg/ha): 2.5
ORYSAT herbicidal rating (ORYSAT (Rice, Tebonnet) [5]; rate 0.0630 kg/ha): 2.5
TRZAWR preemergence herbicidal rating [6]: 0.0
